In patent US20110301153A1, “METHODS OF TREATING CANCER” (The Trustees of the University of Pennsylvania, priority 2008, published 2011):

Columns and labels:
Format in all cases: cell-based, human
[1] = tested on: SF188 cells stably expressing Bcl-xL; experiment: Akt/PI3K inhibitor treatment, media metabolite analysis (glucose, lactate, glutamine, ammonia); conditions: 8 hours, medium analysed
Method: SF188 cells stably expressing Bcl-xL were treated with AktiVIII at doses ranging from 0-20 μM. Medium was collected and analyzed for glucose, lactate, glutamine, and ammonia. The rates shown were calculated from the difference in metabolite concentration between the medium at the time point shown and fresh medium. The data points presented are the mean±SD of triplicate samples.
SF188 cells stably expressing Bcl-xL were plated at a density of 4×10^5 cells in E-well plate format, and incubated in DMEM with 10% FCS for 36 hours prior to treatment with AKT inhibitor VIII (Calbiochem) at 0, 0.1, 2, 5, and 10 μM concentrations in triplicate. After 8 hours, medium samples were collected for metabolite analysis, and viable cells were counted using trypan blue exclusion.
Media glucose, glutamine, lactate, and ammonia concentrations were analyzed using the Nova Biomedical Flex Analyzer (Waltham, Mass.).

SF188 cells [2] = experiment: AOA dose-finding, viability of SF188 cells; conditions: doses 500 nM-500 μM, viability 24 h post-treatment
Method: SF188 cells (UC Brain Tumor Research Center, SF, CA) and SV40-immortalized MEF stably transfected with MycER (a gift from Drs. A T Tikhonenko and R. A. Amaravadi of University of Pennsylvania, Philadelphia, Pa.) were cultured in DMEM (Invitrogen), 10% FBS (Gemini Biosystems), 100 units/ml Penicillin, 100 ug/ml Streptomycin, 25 mM glucose, and 6 mM L-glutamine at 37° C. in a 5% CO2 incubator. To avoid depleting […], all experiments were carried out under subconfluent conditions. For glutamine starvation experiments, DMEM without glutamine (Invitrogen) was supplemented with 10% dialyzed FBS (Gemini Biosystems). For metabolic tracing experiments, DMEM without glutamine and with 10% dialyzed FBS was supplemented with either L-glutamine that was unenriched or with L-[U-^13C5]glutamine (Isotec), [U-^14C5]glutamine (GE Amersham), and [γ-^15N]glutamine (Cambridge Isotope Laboratories). DMEM without glucose (Sigma) was supplemented with [U-^14C6]glucose (Sigma). To activate MycER, cells were incubated with 200 nM 4-hydroxytamoxifen for 24 hours.
SF188 cells were treated with AOA (Sigma) at doses ranging from 500 nM-500 μM and viability was assessed 24 h post-treatment. Moreadith R W & Lehninger A L (1984) J. Biol. Chem. 259(10):6215-6221. […] After allowing to plate overnight, cells were treated with 500 μM for 24 h, and then viability was assessed using trypan blue dye exclusion.

shCTRL SF188 cells = experiment: AOA treatment of SF188 cells transduced with control shRNA, viability by trypan blue dye exclusion; conditions: P<0.01
Method: (§1) (A) Myc-suppressed SF188 cells are resistant to glutamine starvation. shMYC and shCTRL SF188 cells, described in FIG. 3B, were allowed to plate in the presence of glutamine and then cultured in the absence of glutamine. Cell viability was determined at the time points shown by trypan blue dye exclusion. The data points shown represent the mean±SD of triplicate samples. (B) Myc-suppressed SF188 cells are resistant to an inhibitor of glutaminolysis. shMYC and shCTRL SF188 cells, described in FIG. 3B, were allowed to plate in the presence of glutamine and then were treated with 500 μM aminooxyacetate (AOA). Cell viability was determined at the time points shown by trypan blue dye exclusion. AOA-treated shCTRL cells were also treated with 7 mM dimethyl α-ketoglutarate (AOA+α-ketoglutarate). The data points shown represent the mean±SD of triplicate samples.
(§2) Lentivirus was packaged in 293T cells co-transfected with pLKO.1-puro c-Myc or Luciferase-control shRNA plasmid (Sigma) in addition to the pVSV-G and pCMVdelta8.2 helper plasmids using lipofectamine 2000 (Sigma). […]
(§3) SF188 cells were treated with AOA (Sigma) at doses ranging from 500 nM-500 μM and viability was assessed 24 h post-treatment. […] After allowing to plate overnight, cells were treated with 500 μM for 24 h, and then viability was assessed using trypan blue dye exclusion.

shMYC SF188 cells = experiment: AOA treatment of SF188 cells transduced with MYC-shRNA, viability by trypan blue dye exclusion; conditions: 500 μM AOA, 24 h, P<0.01
Method: as §1, §2, §3

SF188 cells [3] = experiment: Glutamine starvation of SF188 cells with alpha-ketoglutarate replacement, viability by trypan blue dye exclusion; conditions: glutamine replaced with 7 mM dimethyl α-ketoglutarate, 25 mM glucose in medium
Method: FIG. 1 concerns glutamine catabolism in the human glioma line SF188. (A) Protein synthesis is a minor fate of glutamine carbon. SF188 cells were cultured in medium supplemented with 0.01% [^14C-U5]glutamine relative to unenriched glutamine for 4 h. [^14C-U5]glutamine in SSA precipitated protein (striped bar) and total glutamine consumed from the medium (grey bar) are presented as the mean±standard deviation (SD) of four independent experiments. (B) The requirement for glutamine can be satisfied by alpha-ketoglutarate. SF188 cells were allowed to plate in complete medium and then cultured in either glutamine-depleted medium (−glutamine), complete medium (+glutamine), or glutamine-depleted medium supplemented with 7 mM dimethyl α-ketoglutarate (−glutamine +α-ketoglutarate). Cell viability was determined at the time points shown by trypan blue dye exclusion. The data presented are the mean±SD of triplicate samples. Representative data from one of three independent experiments are shown.
SF188 cells (UC Brain Tumor Research Center, SF, CA) and SV40-immortalized MEF stably transfected with MycER (a gift from Drs. A T Tikhonenko and R. A. Amaravadi of University of Pennsylvania, Philadelphia, Pa.) were cultured in DMEM (Invitrogen), 10% FBS (Gemini Biosystems), 100 units/ml Penicillin, 100 ug/ml Streptomycin, 25 mM glucose, and 6 mM L-glutamine at 37° C. in a 5% CO2 incubator. […]

## O=c1[nH]c2ccccc2n1C1CCN(Cc2ccc(-c3nc4cc5[nH]cnc5cc4nc3-c3ccccc3)cc2)CC1 [AKT inhibitor VIII]
[1]
  ammonia production: neither glutamine metabolism nor ammonia production was inhibited
  glucose metabolism (consumption): suppressed glucose metabolism and lactate production in a dose-dependent fashion
  glutamine metabolism (consumption): neither glutamine metabolism nor ammonia production was inhibited
  lactate production: suppressed glucose metabolism and lactate production in a dose-dependent fashion

## NOCC(=O)O [AOA, aminooxyacetate]
SF188 cells [2]
  lowest dose that killed a significant fraction of the cells: 500 µM
shCTRL SF188 cells; 500 μM AOA, 24 h, trypan blue dye exclusion
  cell viability / death of cells transduced with control shRNA: selectively induced the death
shMYC SF188 cells
  cell viability of cells transduced with MYC-shRNA: without affecting the viability

## COC(=O)CCC(=O)C(=O)OC [dimethyl α-ketoglutarate]
shCTRL SF188 cells; 7 mM dimethyl α-ketoglutarate added to AOA-treated SF188 parental and control transduced cells
  reversal of AOA-induced toxicity (death): completely suppressed the death
SF188 cells [3]
  cell death in glutamine-deficient medium: suppressed the cell death
